How the values were obtained:
Format in all cases: cell-based
Escherichia coli = assay: Agar plate disc-diffusion, antibacterial inhibition zone; conditions: DMSO control zone subtracted; for inhibition zone, Escherichia coli, A: A = concentration of comp. = 10,000 μL; for inhibition zone, Escherichia coli, B: B = concentration of comp. = 30.000 μL; for inhibition zone, Escherichia coli, C: C = concentration of comp. = 50,000 μL
Procedure: (§1) The agar plate disc-diffusion method was applied. Sterilized filter papers (6 mm in diameter) were wetted with 10 μL of a solution of 2-ethoxy[4,3:6,4-terpyridine]-3-carbonitrile (4) and 2-methoxy[4,3:6,4-terpyridine]-3-carbonitrile (5) to be tested, containing […], and the discs were allowed to air dry. The discs were then placed onto the surface of agar plates (nutrient agar for bacteria and Sabouraud's dextrose agar for fungi) seeded with the test organism. Each plate contained 15 mL of the agar medium, previously seeded with 0.2 mL of the broth culture of each organism pregrown for 18 hours. The plates were incubated at 37° C. for 48 h, and 72 h for fungi. The inhibition zones were measured in mm. Discs impregnated with DMSO were used as a control, and its inhibition zone was subtracted from the tested compound actual inhibition zone.

Pseudomonas aeruginosa = assay: as above; conditions: DMSO control zone subtracted; for inhibition zone, Pseudomonas aeruginosa, A: A = concentration of comp. = 10,000 μL; for inhibition zone, Pseudomonas aeruginosa, B: B = concentration of comp. = 30.000 μL; for inhibition zone, Pseudomonas aeruginosa, C: C = concentration of comp. = 50,000 μL
Procedure: as §1

Staphylococcus aureus = assay: as above; conditions: DMSO control zone subtracted; for inhibition zone, Staphylococcus aureus, A: A = concentration of comp. = 10,000 μL; for inhibition zone, Staphylococcus aureus, B: B = concentration of comp. = 30.000 μL; for inhibition zone, Staphylococcus aureus, C: C = concentration of comp. = 50,000 μL
Procedure: as §1

Bacillus Cereus = assay: as above; conditions: DMSO control zone subtracted; for inhibition zone, Bacillus Cereus, A: A = concentration of comp. = 10,000 μL; for inhibition zone, Bacillus Cereus, B: B = concentration of comp. = 30.000 μL; for inhibition zone, Bacillus Cereus, C: C = concentration of comp. = 50,000 μL
Procedure: as §1

Aspergillus flavus = assay: Agar plate disc-diffusion, antifungal inhibition zone; conditions: DMSO control zone subtracted; for inhibition zone, Aspergillus flavus, A: A = concentration of comp. = 10,000 μL; for inhibition zone, Aspergillus flavus, B: B = concentration of comp. = 30.000 μL; for inhibition zone, Aspergillus flavus, C: C = concentration of comp. = 50,000 μL
Procedure: as §1

[1] = system: Chrysosporium keratinophilum; assay: as above; conditions: DMSO control zone subtracted; for inhibition zone, Chrysosporium keratinophilum, A: A = concentration of comp. = 10,000 μL; for inhibition zone, Chrysosporium keratinophilum, B: B = concentration of comp. = 30.000 μL; for inhibition zone, Chrysosporium keratinophilum, C: C = concentration of comp. = 50,000 μL
Procedure: as §1

Compound | inhibition zone, Escherichia coli, A (Escherichia coli) [mm] | inhibition zone, Escherichia coli, B (Escherichia coli) [mm] | inhibition zone, Escherichia coli, C (Escherichia coli) [mm] | inhibition zone, Pseudomonas aeruginosa, A (Pseudomonas aeruginosa) [mm] | inhibition zone, Pseudomonas aeruginosa, B (Pseudomonas aeruginosa) [mm] | inhibition zone, Pseudomonas aeruginosa, C (Pseudomonas aeruginosa) [mm] | inhibition zone, Staphylococcus aureus, A (Staphylococcus aureus) [mm] | inhibition zone, Staphylococcus aureus, B (Staphylococcus aureus) [mm] | inhibition zone, Staphylococcus aureus, C (Staphylococcus aureus) [mm] | inhibition zone, Bacillus Cereus, A (Bacillus Cereus) [mm] | inhibition zone, Bacillus Cereus, B (Bacillus Cereus) [mm] | inhibition zone, Bacillus Cereus, C (Bacillus Cereus) [mm] | inhibition zone, Aspergillus flavus, A (Aspergillus flavus) [mm] | inhibition zone, Aspergillus flavus, B (Aspergillus flavus) [mm] | inhibition zone, Aspergillus flavus, C (Aspergillus flavus) [mm] | inhibition zone, Chrysosporium keratinophilum, A [1] [mm] | inhibition zone, Chrysosporium keratinophilum, B [1] [mm] | inhibition zone, Chrysosporium keratinophilum, C [1] [mm]
COc1nc(-c2ccncc2)cc(-c2cccnc2)c1C#N [Compound 5, 2-methoxy[4,3:6,4-terpyridine]-3-carbonitrile] | 32 | 39 | 42 | 26 | 32 | 40 | 23 | 28 | 37 | 32 | 36 | 41 | 19 | 24 | 30 | 27 | 30 | 46
CCOc1nc(-c2ccncc2)cc(-c2cccnc2)c1C#N [Compound 4, 2-ethoxy[4,3:6,4-terpyridine]-3-carbonitrile] | 33 | 41 | 49 | 28 | 34 | 41 | 19 | 23 | 33 | 27 | 34 | 39 | 30 | 34 | 41 | 26 | 31 | 39
